Results published in patent US20260250290A1 (BRISTOL-MYERS SQUIBB COMPANY, priority 2023, published 2026).

Target: T1, full length SGK1 (Homo sapiens, UniProt O00141)
T1 construct: 125 μM full length SGK1 (Life Technologies Part #PR7358A); purchased Life Technologies PR7358A
T1 sequence (O00141 1-431): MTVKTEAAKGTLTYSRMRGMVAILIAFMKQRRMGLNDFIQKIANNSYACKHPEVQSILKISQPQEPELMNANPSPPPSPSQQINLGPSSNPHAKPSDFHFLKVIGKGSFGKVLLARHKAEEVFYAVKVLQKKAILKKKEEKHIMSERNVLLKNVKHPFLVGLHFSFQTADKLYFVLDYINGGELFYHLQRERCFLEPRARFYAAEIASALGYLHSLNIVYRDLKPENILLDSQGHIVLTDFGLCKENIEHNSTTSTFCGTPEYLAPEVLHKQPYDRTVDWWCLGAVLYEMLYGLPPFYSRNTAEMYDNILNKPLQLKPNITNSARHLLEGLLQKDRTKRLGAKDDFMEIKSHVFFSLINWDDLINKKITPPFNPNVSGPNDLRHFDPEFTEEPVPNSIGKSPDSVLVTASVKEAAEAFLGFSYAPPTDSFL
Test: SGK1 inhibition Assay A (Caliper LabChip electrophoretic separation of fluorescent peptide substrate and phosphorylated product)
Assay type: biochemical
Conditions: Assay A; 20 μM ATP, 40 min incubation; read-out: SGK1 IC50

Question: `CC(=O)N1CC=C(c2cc(N3CCC[C@@H](NC(=O)c4sc(C(F)F)cc4OC4CCN(C)CC4)C3)c3c(N)ncnn23)C1` [Example 438, (R)—N-(1-(7-(1-acetyl-2,5-dihydro-1H-pyrrol-3-yl)-4-aminopyrrolo[2,1-f][1,2,4]triazin-5-yl)piperidin-3-yl)-5-(difluoromethyl)-3-((1-methylpiperidin-4-yl)oxy)thiophene-2-carboxamide] was tested. Which IC50 did it give?
Answer: 6 nM

Question: Which IC50 does the source give for `Cc1cc(-c2cc(N3CCC[C@@H](NC(=O)c4sc(C(F)F)cc4OC4CCN(C)CC4)C3)c3c(N)ncnn23)cnc1C#N` [Example 439, (R)-N-(1-(4-amino-7-(6-cyano-5-methylpyridin-3-yl)pyrrolo[2,1-f][1,2,4]triazin-5-yl)piperidin-3-yl)-5-(difluoromethyl)-3-((1-methylpiperidin-4-yl)oxy)thiophene-2-carboxamide] here?
Answer: 2 nM

Question: Which IC50 does the source give for `CN1CCC(Oc2cc(C(F)F)sc2C(=O)N[C@@H]2CCCN(c3cc(-c4ccc(C#N)c(F)c4)n4ncnc(N)c34)C2)CC1` [Example 440, (R)-N-(1-(4-amino-7-(4-cyano-3-fluorophenyl)pyrrolo[2,1-f][1,2,4]triazin-5-yl)piperidin-3-yl)-5-(difluoromethyl)-3-((1-methylpiperidin-4-yl)oxy)thiophenc-2-carboxamide] here?
Answer: 3 nM

Question: For `COC(=O)N1CC=C(c2cc(N3CCC[C@@H](NC(=O)c4sc(C(F)F)cc4OC4CCN(C(C)C)CC4)C3)c3c(N)ncnn23)C1` [Example 441, Methyl (R)-3-(4-amino-5-(3-(5-(difluoromethyl)-3-((1-isopropylpiperidin-4-yl)oxy)thiophene-2-carboxamido)piperidin-1-yl)pyrrolo[2,1-f][1,2,4]triazin-7-yl)-2,5-dihydro-1H-pyrrole-1-carboxylate], which IC50 is on record?
Answer: 10 nM

Question: Which IC50 does the source give for `CC(=O)N1CC=C(c2cc(N3CCC[C@@H](NC(=O)c4ccc(N(C)C)cc4)C3)c3c(N)ncnn23)C1` [Example 445] here?
Answer: 5 nM

Question: With `CC(=O)N1CC=C(c2cc(N3CCC[C@@H](NC(=O)c4cnccn4)C3)c3c(N)ncnn23)C1` [Example 446, (R)-N-(1-(7-(1-acetyl-2,5-dihydro-1H-pyrrol-3-yl)-4-aminopyrrolo[2,1-][1,2,4]triazin-5-yl)piperidin-3-yl)pyrazine-2-carboxamide] as the compound, how does the IC50 read?
Answer: 126 nM

Question: How did the IC50 turn out when `CC(=O)Nc1cccc(C(=O)N[C@@H]2CCCN(c3cc(C4=CCN(C(C)=O)C4)n4ncnc(N)c34)C2)c1` [Example 447, (R)-3-acetamido-N-(1-(7-(1-acetyl-2,5-dihydro-1H-pyrrol-3-yl)-4-aminopyrrolo[2,1-f][1,2,4]triazin-5-yl)piperidin-3-yl)benzamide] was run?
Answer: 19 nM

Question: Which IC50 does the source give for `CC(=O)N1CC=C(c2cc(N3CCC[C@@H](NC(=O)c4cccc(C)n4)C3)c3c(N)ncnn23)C1` [Example 448, (R)-N-(1-(7-(1-acetyl-2,5-dihydro-1H-pyrrol-3-yl)-4-aminopyrrolo[2,1-][1,2,4]triazin-5-yl)piperidin-3-yl)-6-methylpicolinamide] here?
Answer: 4 nM

Question: With `CC(=O)N1CC=C(c2cc(N3CCC[C@@H](NC(=O)c4csnn4)C3)c3c(N)ncnn23)C1` [Example 449, (R)-N-(1-(7-(1-acetyl-2,5-dihydro-1H-pyrrol-3-yl)-4-aminopyrrolo[2,1-f][1,2,4]triazin-5-yl)piperidin-3-yl)-1,2,3-thiadiazole-4-] as the compound, how does the IC50 read?
Answer: 34 nM

Question: `CC(=O)N1CC=C(c2cc(N3CCC[C@@H](NC(=O)c4csc(-c5cccnc5)n4)C3)c3c(N)ncnn23)C1` [Example 450, (R)-N-(1-(7-(1-acetyl-2,5-dihydro-1H-pyrrol-3-yl)-4-aminopyrrolo[2,1-f][1,2,4]triazin-5-yl)piperidin-3-yl)-2-(pyridin-3-yl)thiazole-4-carboxamide] was tested. Which IC50 did it give?
Answer: 53 nM

Question: Which IC50 does the source give for `CC(=O)N1CC=C(c2cc(N3CCC[C@@H](NC(=O)c4cnc(C)cn4)C3)c3c(N)ncnn23)C1` [Example 451, (R)-N-(1-(7-(1-acetyl-2,5-dihydro-1H-pyrrol-3-yl)-4-aminopyrrolo[2,1-f][1,2,4]triazin-5-yl)piperidin-3-yl)-5-methylpyrazine-2-carboxamide] here?
Answer: 225 nM

Question: Which IC50 does the source give for `CC(=O)N1CC=C(c2cc(N3CCC[C@@H](NC(=O)c4ccc5ncsc5c4)C3)c3c(N)ncnn23)C1` [Example 452, (R)-N-(1-(7-(1-acetyl-2,5-dihydro-1H-pyrrol-3-yl)-4-aminopyrrolo[2,1-f][1,2,4]triazin-5-yl)piperidin-3-yl)benzo[d]thiazole-6-carboxamide] here?
Answer: 198 nM

Question: For `CC(=O)N1CC=C(c2cc(N3CCC[C@@H](NC(=O)c4csc(-c5ccccc5)n4)C3)c3c(N)ncnn23)C1` [Example 453, (R)-N-(1-(7-(1-acetyl-2,5-dihydro-1H-pyrrol-3-yl)-4-aminopyrrolo[2,1-f][1,2,4]triazin-5-yl)piperidin-3-yl)-2-phenylthiazole-4-carboxamide], which IC50 is on record?
Answer: 7 nM

Question: How did the IC50 turn out when `CC(=O)N1CC=C(c2cc(N3CCC[C@@H](NC(=O)c4ccc(-c5ccccc5)o4)C3)c3c(N)ncnn23)C1` [Example 454, (R)-N-(1-(7-(1-acetyl-2,5-dihydro-1H-pyrrol-3-yl)-4-aminopyrrolo[2,1-f][1,2,4]triazin-5-yl)pipridin-3-yl)-5-phenylfuran-2-carboxamide] was run?
Answer: 1 nM

Question: Which IC50 does the source give for `CC(=O)N1CC=C(c2cc(N3CCC[C@@H](NC(=O)c4cc(C)on4)C3)c3c(N)ncnn23)C1` [Example 455, (R)-N-(1-(7-(1-acetyl-2,5-dihydro-1H-pyrrol-3-yl)-4-aminopyrrolo[2,1-f][1,2,4]triazin-5-yl)piperidin-3-yl)-5-methylisoxazole-3-] here?
Answer: 246 nM

Question: Which IC50 does the source give for `CC(=O)N1CC=C(c2cc(N3CCC[C@@H](NC(=O)c4cc5ccccc5n4C)C3)c3c(N)ncnn23)C1` [Example 456, (R)-N-(1-(7-(1-acetyl-2,5-dihydro-1H-pyrrol-3-yl)-4-aminopyrrolo[2,1-f][1,2,4]triazin-5-yl)piperidin-3-yl)-1-methyl-1H-indole-2-carboxamide] here?
Answer: 41 nM

Question: Which IC50 does the source give for `CC(=O)N1CC=C(c2cc(N3CCC[C@@H](NC(=O)c4ccc(CO)cc4)C3)c3c(N)ncnn23)C1` [Example 457, (R)-N-(1-(7-(1-acetyl-2,5-dihydro-1H-pyrrol-3-yl)-4-aminopyrrolo[2,1-f][1,2,4]triazin-5-yl)piperidin-3-yl)-4-(hydroxymethyl)benzamide] here?
Answer: 18 nM

Question: For `CC(=O)N1CC=C(c2cc(N3CCC[C@@H](NC(=O)c4cc(C(C)C)[nH]n4)C3)c3c(N)ncnn23)C1` [Example 458, (R)-N-(1-(7-(1-acetyl-2,5-dihydro-1H-pyrrol-3-yl)-4-aminopyrrolo[2,1-f][1,2,4]triazin-5-yl)piperidin-3-yl)-5-isopropyl-1H-pyrazole-3-carboxamide], which IC50 is on record?
Answer: 3 nM

Question: With `CC(=O)N1CC=C(c2cc(N3CCC[C@@H](NC(=O)C4=NN(c5ccccc5)C(=O)C4)C3)c3c(N)ncnn23)C1` [Example 459, (R)-N-(1-(7-(1-acetyl-2,5-dihydro-1H-pyrrol-3-yl)-4-aminopyrrolo[2,1-f][1,2,4]triazin-5-yl)piperidin-3-yl)-5-oxo-1-phenyl-4,5-dihydro-1H-pyrazole-3-carboxamide] as the compound, how does the IC50 read?
Answer: 392 nM

Question: Which IC50 does the source give for `CC(=O)N1CC=C(c2cc(N3CCC[C@@H](NC(=O)c4ccc(-n5ccnc5)cc4)C3)c3c(N)ncnn23)C1` [Example 460, (R)-N-(1-(7-(1-acetyl-2,5-dihydro-1H-pyrrol-3-yl)-4-aminopyrrolo[2,1-f][1,2,4]triazin-5-yl)piperidin-3-yl)-4-(1H-imidazol-1-yl)benzamide] here?
Answer: 67 nM

Question: With `CC(=O)N1CC=C(c2cc(N3CCC[C@@H](NC(=O)c4scnc4C)C3)c3c(N)ncnn23)C1` [Example 461, (R)-N-(1-(7-(1-acetyl-2,5-dihydro-1H-pyrrol-3-yl)-4-aminopyrrolo[2,1-f][1,2,4]triazin-5-yl)piperidin-3-yl)-4-methylthiazole-5-carboxamide] as the compound, how does the IC50 read?
Answer: 89 nM

Question: Which IC50 does the source give for `CC(=O)N1CC=C(c2cc(N3CCC[C@@H](NC(=O)c4ccc(-c5ccncc5)cc4)C3)c3c(N)ncnn23)C1` [Example 462, (R)-N-(1-(7-(1-acetyl-2,5-dihydro-1H-pyrrol-3-yl)-4-aminopyrrolo[2,1-f][1,2,4]triazin-5-yl)piperidin-3-yl)-4-(pyridin-4-yl)benzamide] here?
Answer: 26 nM

Question: How did the IC50 turn out when `CC(=O)N1CC=C(c2cc(N3CCC[C@@H](NC(=O)c4ccc(CN5CCOCC5)cc4)C3)c3c(N)ncnn23)C1` [Example 463, (R)-N-(1-(7-(1-acetyl-2,5-dihydro-1H-pyrrol-3-yl)-4-aminopyrrolo[2,1-f][1,2,4]triazin-5-yl)piperidin-3-yl)-4-(morpholinomethyl)benzamide] was run?
Answer: 400 nM

Question: How did the IC50 turn out when `CC(=O)N1CC=C(c2cc(N3CCC[C@@H](NC(=O)C4=NNC(=O)CC4)C3)c3c(N)ncnn23)C1` [Example 464, (R)-N-(1-(7-(1-acetyl-2,5-dihydro-1H-pyrrol-3-yl)-4-aminopyrrolo[2,1-f][1,2,4]triazin-5-yl)piperidin-3-yl)-6-oxo-1,4,5,6-tetrahydropyridazine-3-carboxamide] was run?
Answer: 636 nM

Question: `CC(=O)N1CC=C(c2cc(N3CCC[C@@H](NC(=O)c4cccc(N(C)C)c4)C3)c3c(N)ncnn23)C1` [Example 465, (R)-N-(1-(7-(1-acetyl-2,5-dihydro-1H-pyrrol-3-yl)-4-aminopyrrolo[2,1-f][1,2,4]triazin-5-yl)piperidin-3-yl)-3-(dimethylamino)benzamide] was tested. Which IC50 did it give?
Answer: 64 nM

Question: `CC(=O)Nc1ccc(C(=O)N[C@@H]2CCCN(c3cc(C4=CCN(C(C)=O)C4)n4ncnc(N)c34)C2)cc1` [Example 466, (R)-4-acetamido-N-(1-(7-(1-acetyl-2,5-dihydro-1H-pyrrol-3-yl)-4-aminopyrrolo[2,1-f][1,2,4]triazin-5-yl)piperidin-3-yl)benzamide] was tested. Which IC50 did it give?
Answer: 50 nM
